Data as given in patent publication US8889724B2, “Tetrazole compounds for reducing uric acid” (Wellstat Therapeutics Corporation, priority 2008, dated 2014).
Where “and” joins values, the source holds several entries; their conditions need not be identical. Equal values may be shown once.

What was measured:
human URAT1 = human URAT1 (Homo sapiens (Human), UniProt Q96S37); test: URAT1 inhibition assay: [8-14C] urate uptake in hURAT1-HEK cells; assay type: cell-based; settings: for inhibition at 10 µM: hURAT1-HEK cells; for IC50: 14C urate uptake in hURAT1-HEK cells
Protocol: URAT1 (Uric Acid Transporter 1) is expressed on the apical membrane in renal tubules. It mediates the re-uptake of uric acid from the urine into the blood.
A suitable assay involves transfection of cells (e g human embryonic kidney cells; “HEK”) with a vector encoding human URAT1, followed by determination of the ability of transfected cells to take up radiolabeled uric acid. The activity of compounds as URAT1 inhibitors is evaluated by their ability to block uric acid uptake by transfected cells.
Test Compounds and Chemicals:
Urate (50-60 mCi/mmol; American Radio Chemicals, Cat. No. ARC0513).
Subcloning of hURAT1 into the Expression Vector:
Plasmid vector pCMV6-XL5 containing hURAT1 cDNA (Cat. No. SC125624) and the expression vector pCMV6-Neo (Cat. No. pCMVNEO) were obtained from OriGene Technologies, Inc. The full-length hURAT1 cDNA was obtained from the vector pCMV6-XL5 and subcloned into the expression vector pCMV6-Neo to create the hURAT1 expression plasmid pCMV6-hURAT1. The sequences were verified by automatic DNA sequencing.
Cell Culture, Transfection of URAT1 Expressing Plasmids and the Establishment of Stably Expressing HEK Cells for hURAT1:
For transfection experiments, cells were plated on 60 mm dishes in 1 ml media per dish. […] Stable transfectants expressing hURAT1 (herein after referred as hURAT1-HEK cells) or cells having only the expression vector pCMV6-Neo (herein after referred as mock-HEK cells) were verified using reverse transcription polymerase chain reaction (RT-PCR) methods.
[8-^14C] Urate Uptake Assay:
Before the uptake assay started, the culture medium was removed and the cells were incubated for 5 min in 0.6 ml of HBSS. After that HBSS was removed, the prepared reaction solutions were added into each well and incubated for 5 min at room temperature. Then the reaction solution was removed, cells were washed twice with 0.6 ml of cold HBSS and lysed with 0.2 ml of 0.1 M NaOH for 20 min. […] Test compounds were dissolved in DMSO and the same concentration of DMSO was added into the wells of mock-HEK cells and the hURAT1-HEK cells that didn't contain test compounds. For each test compound, the uptake assay was performed 2 times and carried out in triplicate. Urate uptake of the cells for each test condition was presented as the average percent inhibition in comparison to the DMSO control. The radioactivity values obtained for the wells that contained DMSO were taken as 100% uptake of the cells. The observed concentration-percent inhibition data were fitted to a sigmoidal concentration-effect model, where: % Inhibition=(100*Conc^Slope)/(IC50^Slope+Conc^Slope)
In this example the compounds were not necessarily tested simultaneously.

[1] = Rat pilot single-dose oral pharmacokinetic study with Compound EC; assay type: in vivo; settings: 100 mg/kg single oral gavage; for Compound EC concentration in plasma, individual rats: male Sprague-Dawley rat
Protocol: Rat Pilot Single-Dose Oral Pharmacokinetic Study with Compound EC
Determination of the Plasma Profile of Compound EC Following Single Oral Gavage Administration to Male Rats.
(§1) Test compound was suspended in 1% HPMC using a tissue homogenizer to minimize particles and maximize uniformity of the suspension and stored at 4° C. The formulations was thoroughly mixed just prior to administration. A dose of 100 mg/kg of test compounds or vehicle (1% HPMC) was administered to male Sprague-Dawley rats by single oral gavage. […] The blood samples were centrifuged within 30 minutes of collection under refrigeration (2-8° C.) for 7 minutes at 6000 rpm. Following centrifugation, the plasma were harvested into a single tube for each animal at each time point and immediately frozen at −80° C. until analyzed using LC/MS-MS. Serial plasma concentration time data was subjected to pharmacokinetic analyses using WinNonlin Standard (v2.1, Pharsight Corporation) and Microsoft EXCEL.
1. Rats received single oral gavage of Compound EC, 100 mg/kg, and plasma was collected at certain times.
(§2) 2. Plasma was stored at −80° C. until the day of analysis.
(§3) 3. Samples were thawed on 37° C. bath for 5 min and vortexed at top speed for 10 sec.
(§4) 4. Rat plasma, 0.1 mL was mixed with 0.2 mL Acetonitrile, vortexed 1 min, spun down 14000 rpm, 17000 g, at 4° C., for 25 min.
(§5) 5. Supernatants were filtered through 0.45 micron, 4 mm, PTFE membrane syringe filter (Phenomenex # AF0-3102-52), and 15 microL were injected and resolved on Luna 3 micron, 100 A pore, C8(2), 150×3 mm, reverse phase column (Phenomenex#00F-4248-YO, SN#259151-7) in 50 min linear gradient from 40% to 69% of (0.1% Formic Acid, 89.9% Acetonitrile, 10% Methanol) at 0.25 mL/min, 107 bar, 37° C. column temperature, method 406975M1, AGILENT sequence 0226-09A, Agilent 1100 LC-MS.
(§6) All samples were run in duplicate, 210 nm and 230 nm Absorbances, Negative and Positive ionization spectrograms were recorded.
Step 1. Plasma from “Vehicle” animals (pooled), 0.19 mL, was mixed with 0.01 mL 20× stock of Compound EC in Methanol to make 500 microM, 250 microM, 125 microM, concentrations of Compound EC in plasma.
For example: 190 microL plasma+10 microL of 10 mM Compound EC in methanol=0.2 mL plasma with 500 microM Compound EC.
(§7) Step 2. Samples from step 1 were vortexed for 10 sec at top speed.
(§8) Step 3. 0.4 mL of acetonitrile was added to all samples from Step 2, and all vials were vortexed at top speed for 1 min.
(§9) Step 4. All samples from step 3 were spun down 14000 rpm, 17000 g, at 4° C., for 25 min.
as §5, with “Step 5.” for “5.”, “AF0-3102-52),” for “AF0-3102-52), and”, “temperature. All samples were run in duplicate, 210 nm and 230 nm Absorbances, Negative and Positive ionization spectrograms were recorded.” for “temperature, method 406975M1, AGILENT sequence 0226-09A, Agilent 1100 LC-MS.”

[2] = Rat pilot single-dose oral pharmacokinetic study with Compound EG; assay type: in vivo; settings: 100 mg/kg single oral gavage; for Concentration of Compound EG in rat plasma, individual rats: male Sprague-Dawley rat
Protocol: Rat Pilot Single-Dose Oral Pharmacokinetic Study with Compound EG
Determination of the Plasma Profile of Compound EG Following Single Oral Gavage Administration to Male Rats.
as §1
1. Rats received single oral gavage of Compound EG, 100 mg/kg, and plasma was collected at certain times.
as §2, §3, §4, §5, §6
Step 1. Plasma from “Vehicle” animals (pooled), 0.19 mL, was mixed with 0.01 mL 20× stock of Compound EG in Methanol to make 500 microM, 250 microM, 125 microM, . . . , concentrations of Compound EG in plasma.
For example: 190 microL plasma+10 microL of 10 mM Compound EG in methanol=0.2 mL plasma with 500 microM Compound EG.
as §7, §8, §9
as §5, with “Step 5.” for “5.”, “AF0-3102-52),” for “AF0-3102-52), and”, “temperature. All samples were run in duplicate, 210 nm and 230 nm Absorbances, Negative and Positive ionization spectrograms were recorded.” for “temperature, method 406975M1, AGILENT sequence 0226-09A, Agilent 1100 LC-MS.”

[3] = Sprague-Dawley, rat, male rats, plasma
[4] = Sprague-Dawley, rat, male rats, plasma, read-out: AUC0-24
[5] = male, Sprague-Dawley, rat, plasma, 0 HR
[6] = male, Sprague-Dawley, rat, plasma, 0.25 HR
[7] = male, Sprague-Dawley, rat, plasma, 0.5 HR
[8] = male, Sprague-Dawley, rat, plasma, 1 HR
[9] = male, Sprague-Dawley, rat, plasma, 2 HR
[10] = male, Sprague-Dawley, rat, plasma, 4 HR
[11] = male, Sprague-Dawley, rat, plasma, 6 HR
[12] = male, Sprague-Dawley, rat, plasma, 8 HR
[13] = male, Sprague-Dawley, rat, plasma, 24 HR

human URAT1, sequence (Q96S37 whole entry): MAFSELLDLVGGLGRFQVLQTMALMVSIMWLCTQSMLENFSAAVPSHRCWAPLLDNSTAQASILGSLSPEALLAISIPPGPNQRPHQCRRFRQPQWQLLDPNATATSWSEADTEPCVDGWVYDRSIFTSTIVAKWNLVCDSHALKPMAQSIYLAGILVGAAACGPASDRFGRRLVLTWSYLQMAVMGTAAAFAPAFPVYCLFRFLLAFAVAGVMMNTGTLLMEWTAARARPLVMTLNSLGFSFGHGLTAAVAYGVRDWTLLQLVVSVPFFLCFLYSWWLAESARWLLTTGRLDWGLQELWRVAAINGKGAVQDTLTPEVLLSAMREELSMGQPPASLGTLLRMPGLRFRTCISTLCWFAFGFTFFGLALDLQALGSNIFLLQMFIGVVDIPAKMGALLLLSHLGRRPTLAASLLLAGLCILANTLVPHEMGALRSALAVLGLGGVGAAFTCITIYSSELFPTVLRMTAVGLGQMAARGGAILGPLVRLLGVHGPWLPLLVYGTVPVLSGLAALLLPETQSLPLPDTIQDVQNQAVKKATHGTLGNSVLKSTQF

Work on `Fc1cccc(F)c1COc1ccc(Cc2nnn[nH]2)cc1` [BD, 5-(4-(2,6-Difluorobenzyloxy)benzyl)-1H-tetrazole] yielded an inhibition at 10 µM (human URAT1) of 56.6%.

In the case of `Cc1cccc(C)c1COc1cccc(Cc2nnn[nH]2)c1` [Compound EC, 5-(3-(2,6-Dimethylbenzyloxy)benzyl)-1H-tetrazole], the inhibition at 10 µM (human URAT1) is reported as 95.2%, the IC50 (human URAT1) is reported as 240 nM and the Cmax [1, 3] is reported as 61000 ng/mL. The AUC(0-t) [1, 4] was 672 µg·h/mL, the “Compound EC concentration in plasma, individual rats” value (shortened to “Compound EC concentration in plasma”) ([1]; 0.25 HR) was 114 µM and 67 µM and the “Compound EC concentration in plasma” value ([1]; 0.5 HR) was 45 µM and 25 µM. The “Compound EC concentration in plasma” value ([1]; 1 HR) was 17 µM and 222 µM, the “Compound EC concentration in plasma” value ([1]; 2 HR) was 384 µM and 29 µM and the “Compound EC concentration in plasma” value ([1]; 4 HR) was 35 µM and 11 µM. For the same compound, the “Compound EC concentration in plasma” value ([1]; 6 HR) was 85 µM and 73 µM and 62 µM, the “Compound EC concentration in plasma” value ([1]; 8 HR) was 107 µM and 262 µM and the “Compound EC concentration in plasma” value ([1]; 24 HR) was 0 µM. It also gave a concentration at 0 h [1, 5] of 0 ng/mL, a concentration at 0.25 h [1, 6] of 27000 ng/mL and a concentration at 0.5 h [1, 7] of 10000 ng/mL. The concentration at 1 h [1, 8] was 35000 ng/mL, the concentration at 2 h [1, 9] was 61000 ng/mL and the concentration at 4 h [1, 10] was 7000 ng/mL. It also gave a concentration at 6 h [1, 11] of 22000 ng/mL, a concentration at 8 h [1, 12] of 54000 ng/mL and a concentration at 24 h [1, 13] of 0 ng/mL. For the same compound, the “Detection in plasma (in words)” value ([1]; rat, LC-MS) was “readily detected”.

In the case of `Cc1ccc(Cc2nnn[nH]2)cc1OCc1c(C)cccc1C` [Compound EG, 5-(3-(2,6-Dimethylbenzyloxy)-4-methylbenzyl)-1H-tetrazole], the inhibition at 10 µM (human URAT1) is reported as 95.6%, the IC50 (human URAT1) is reported as 130 nM and the Cmax [2, 3] is reported as 22000 ng/mL. The AUC(0-t) [2, 4] was 94.9 µg·h/mL, the “Concentration of Compound EG in rat plasma, individual rats” value (“Concentration of Compound EG” for short) ([2]; 0.25 HR) was 19 µM and 27 µM and the “Concentration of Compound EG” value ([2]; 0.5 HR) was 29 µM and 18 µM. The “Concentration of Compound EG” value ([2]; 1 HR) was 101 µM and 42 µM, the “Concentration of Compound EG” value ([2]; 2 HR) was 25 µM and 50 µM and the “Concentration of Compound EG” value ([2]; 4 HR) was 14 µM and 23 µM. The “Concentration of Compound EG” value ([2]; 6 HR) was 10 µM and 17 µM, the “Concentration of Compound EG” value ([2]; 8 HR) was 5 µM and 19 µM and the “Concentration of Compound EG” value ([2]; 24 HR) was 2 µM and 0 µM. It also gave a concentration at 0 h [2, 5] of 0 ng/mL, a concentration at 0.25 h [2, 6] of 7000 ng/mL and a concentration at 0.5 h [2, 7] of 7000 ng/mL. It also gave a concentration at 1 h [2, 8] of 22000 ng/mL, a concentration at 2 h [2, 9] of 12000 ng/mL and a concentration at 4 h [2, 10] of 6000 ng/mL. It also gave a concentration at 6 h [2, 11] of 4000 ng/mL, a concentration at 8 h [2, 12] of 4000 ng/mL and a concentration at 24 h [2, 13] of 0 ng/mL. The “Detection in plasma (in words)” value ([2]; rat, LC-MS) was “readily detected”.

`COc1ccc(Cc2nnn[nH]2)cc1OCc1c(C)cccc1C` [ED, 5-(3-(2,6-Dimethylbenzyloxy)-4-methoxybenzyl)-1H-tetrazole] showed an inhibition at 10 µM (human URAT1) of 96% and an IC50 (human URAT1) of 250 nM.

Work on `Cc1cccc(C)c1COc1cccc(CCc2nnn[nH]2)c1` [EF, 5-(3-(2,6-Dimethylbenzyloxy)phenethyl)-1H-tetrazole] yielded an inhibition at 10 µM (human URAT1) of 92% and an IC50 (human URAT1) of 740 nM.

`Cc1cccc(C)c1COc1cccc(Cc2nnn[nH]2)c1C` [EH, 5-(3-(2,6-Dimethylbenzyloxy)-2-methylbenzyl)-1H-tetrazole] gave an inhibition at 10 µM (human URAT1) of 80%.

Work on `COc1c(Cc2nnn[nH]2)cccc1OCc1c(C)cccc1C` [EI, 5-(3-(2,6-Dimethylbenzyloxy)-2-methoxybenzyl)-1H-tetrazole] yielded an inhibition at 10 µM (human URAT1) of 44%.
